Activity calls are given as the source filed them. The rule behind the calls is not given here.
Key:
MCF7 [1] = assay: Induction of cell cycle arrestin human MCF7 cells assessed as downregulation of cyclin D1 protein expression at 4 uM by Western blot analysis; assay type: functional, cell-based
CCRF-CEM = assay: Growth inhibition of human CCRF-CEM cells after 48 hrs by SRB assay; assay type: functional
ACHN = assay: Growth inhibition of human ACHN cells after 48 hrs by SRB assay; assay type: functional
MCF7 [2] = assay: Induction of cell cycle arrestin human MCF7 cells assessed as downregulation of CDK2 protein expression at 4 uM by Western blot analysis; assay type: functional, cell-based
A549 = assay: Growth inhibition of human A549 cells after 48 hrs by SRB assay; assay type: functional; settings: A549, 48 h
[3] = Growth inhibition of human UO31 cells after 48 hrs by SRB assay; assay type: functional; settings: UO-31, 48 h
MCF7 [4] = assay: Induction of apoptosis in human MCF7 cells expressing P21 promoter -145/+8 with luciferase gene assessed as upregulation of p21 protein expression at 4 uM by Western blot analysis relative to control; assay type: functional, cell-based
NCI-H522 = assay: Growth inhibition of human NCI-H522 cells after 48 hrs by SRB assay; assay type: functional; settings: NCI-H522, 48 h
KM12 = assay: Growth inhibition of human KM12 cells after 48 hrs by SRB assay; assay type: functional; settings: KM12, 48 h
786-0 = assay: Growth inhibition of human 786-0 cells after 48 hrs by SRB assay; assay type: functional; settings: 786-0, 48 h
HT-29 = assay: Growth inhibition of human HT-29 cells after 48 hrs by SRB assay; assay type: functional; settings: HT-29, 48 h
[5] = Growth inhibition of human EKVX cells after 48 hrs by SRB assay; assay type: functional
Malme-3M = assay: Growth inhibition of human MALME-3M cells after 48 hrs by SRB assay; assay type: functional
[6] = Growth inhibition of human OVCAR4 cells after 48 hrs by SRB assay; assay type: functional; settings: OVCAR-4, 48 h
MCF7 [7] = assay: Induction of cell cycle arrestin human MCF7 cells assessed as downregulation of cyclin E protein expression at 4 uM by Western blot analysis; assay type: functional, cell-based
[8] = Growth inhibition of human OVCAR8 cells after 48 hrs by SRB assay; assay type: functional; settings: OVCAR-8, 48 h
SNB-75 = assay: Growth inhibition of human SNB75 cells after 48 hrs by SRB assay; assay type: functional; settings: SNB-75, 48 h
[9] = Growth inhibition of human HCT15 cells after 48 hrs by SRB assay; assay type: functional; settings: HCT-15, 48 h
SK-MEL-2 = assay: Growth inhibition of human SK-MEL-2 cells after 48 hrs by SRB assay; assay type: functional; settings: SK-MEL-2, 48 h
MCF7 [10] = assay: Induction of apoptosis in human MCF7 cells assessed as upregulation of p27 protein expression at 4 uM by Western blot analysis relative to control; assay type: functional, cell-based
SK-OV-3 = assay: Growth inhibition of human SKOV3 cells after 48 hrs by SRB assay; assay type: functional; settings: SK-OV-3, 48 h
SK-MEL-5 = assay: Growth inhibition of human SK-MEL-5 cells after 48 hrs by SRB assay; assay type: functional; settings: SK-MEL-5, 48 h
MCF7 [11] = assay: Cell cycle arrest in human MCF7 cells assessed as accumulation at G2/M phase at 4 uM after 24 hrs by propidium iodide staining-based flow cytometry (reference value: 15.79%); assay type: functional
A498 = assay: Growth inhibition of human A498 cells after 48 hrs by SRB assay; assay type: functional; settings: A498, 48 h
RPMI-8226 = assay: Growth inhibition of human RPMI8226 cells after 48 hrs by SRB assay; assay type: functional; settings: RPMI-8226, 48 h
[12] = Growth inhibition of human NCI-ADR-RES cells after 48 hrs by SRB assay; assay type: functional
HOP-62 = assay: Growth inhibition of human HOP62 cells after 48 hrs by SRB assay; assay type: functional; settings: HOP-62, 48 h
[13] = Growth inhibition of human SF539 cells after 48 hrs by SRB assay; assay type: functional; settings: SF-539, 48 h
MCF7 [14] = assay: Induction of apoptosis in human MCF7 cells assessed as decrease in procaspase 9 level at 4 uM by Western blot analysis relative to control; assay type: functional, cell-based
MDA-MB-435 = assay: Growth inhibition of human MDA-MB-435 cells after 48 hrs by SRB assay; assay type: functional; settings: MDA-MB-435, 48 h
MCF7 [15] = assay: Growth inhibition of human MCF7 cells assessed as cell viability at 4 uM after 24 hrs by MTT assay; assay type: functional, cell-based
HCT-116 = assay: Growth inhibition of human HCT116 cells after 48 hrs by SRB assay; assay type: functional; settings: HCT-116, 48 h
MDA-MB-468 = assay: Growth inhibition of human MDA-MB-468 cells after 48 hrs by SRB assay; assay type: functional; settings: MDA-MB-468, 48 h
T47D = assay: Growth inhibition of human T47D cells after 48 hrs by SRB assay; assay type: functional
MCF7 [16] = assay: Induction of cell cycle arrestin human MCF7 cells assessed as downregulation of E2F-1 protein expression at 4 uM by Western blot analysis; assay type: functional, cell-based
[17] = Growth inhibition of human LOXIMVI cells after 48 hrs by SRB assay; assay type: functional; settings: LOX IMVI
MDA-MB-231 = assay: Growth inhibition of human MDA-MB-231 cells after 48 hrs by SRB assay; assay type: functional; settings: MDA-MB-231, 48 h
U-251 = assay: Growth inhibition of human U251 cells after 48 hrs by SRB assay; assay type: functional; settings: U-251, 48 h
[18] = Growth inhibition of human OVCAR3 cells after 48 hrs by SRB assay; assay type: functional; settings: OVCAR-3, 48 h
NCI-H23 = assay: Growth inhibition of human NCI-H23 cells after 48 hrs by SRB assay; assay type: functional; settings: NCI-H23, 48 h
[19] = Growth inhibition of human OVCAR5 cells after 48 hrs by SRB assay; assay type: functional; settings: OVCAR-5, 48 h
SNB-19 = assay: Growth inhibition of human SNB19 cells after 48 hrs by SRB assay; assay type: functional; settings: SNB-19, 48 h
NCI-H322M = assay: Growth inhibition of human NCI-H322M cells after 48 hrs by SRB assay; assay type: functional
NCI-H460 = assay: Growth inhibition of human NCI-H460 cells after 48 hrs by SRB assay; assay type: functional; settings: NCI-H460, 48 h
K562 = assay: Growth inhibition of human K562 cells after 48 hrs by SRB assay; assay type: functional; settings: K562, 48 h
MCF7 [20] = assay: Cell cycle arrest in human MCF7 cells assessed as accumulation at G0/G1 phase at 4 uM after 24 hrs by propidium iodide staining-based flow cytometry (reference value: 64.04%); assay type: functional
[21] = Growth inhibition of human HCC2998 cells after 48 hrs by SRB assay; assay type: functional; settings: HCC 2998, 48 h
COLO 205 = assay: Growth inhibition of human COLO205 cells after 48 hrs by SRB assay; assay type: functional; settings: COLO 205, 48 h
SR = assay: Growth inhibition of human SR cells after 48 hrs by SRB assay; assay type: functional
MCF7 [22] = assay: Induction of cell cycle arrestin human MCF7 cells assessed as downregulation of cyclin A protein expression at 4 uM by Western blot analysis; assay type: functional, cell-based

With `COc1ccc(C(=O)/C=C/c2c(C(F)(F)F)nc3ccccn23)cc1OC` the inhibition (MCF7 [1]) was “Active”, the GI50 (CCRF-CEM) was 440 nM and the GI50 (ACHN) was 2850 nM. For the same molecule, the inhibition (MCF7 [2]) was “Active”, the GI50 (A549) was 2800 nM and the GI50 [3] was 1440 nM. For the same molecule, the Activity (MCF7 [4]) was “Active”, the GI50 (NCI-H522) was 5730 nM and the GI50 (KM12) was 570 nM. It also gave a GI50 (786-0) of 2870 nM, a GI50 (HT-29) of 1480 nM and a GI50 [5] of 3740 nM. For the same molecule, the GI50 (Malme-3M) was 6690 nM, the GI50 [6] was 2490 nM and the inhibition (MCF7 [7]) was “Active”. It also gave a GI50 [8] of 1310 nM, a GI50 (SNB-75) of 2350 nM and a GI50 [9] of 1130 nM. The GI50 (SK-MEL-2) was 1720 nM, the Activity (MCF7 [10]) was “Active” and the GI50 (SK-OV-3) was 2490 nM. The GI50 (SK-MEL-5) was 1630 nM, the Activity (MCF7 [11]) was 0.31% and the GI50 (A498) was 2450 nM. The GI50 (RPMI-8226) was 290 nM, the GI50 [12] was 1570 nM and the GI50 (HOP-62) was 3010 nM. For the same molecule, the GI50 [13] was 1650 nM, the inhibition (MCF7 [14]) was “Active” and the GI50 (MDA-MB-435) was 2040 nM. The inhibition (MCF7 [15]) was “Active”, the GI50 (HCT-116) was 840 nM and the GI50 (MDA-MB-468) was 1900 nM. The GI50 (T47D) was 1430 nM, the inhibition (MCF7 [16]) was “inactive” and the GI50 [17] was 950 nM. The GI50 (MDA-MB-231) was 3060 nM, the GI50 (U-251) was 1100 nM and the GI50 [18] was 1980 nM. The GI50 (NCI-H23) was 2370 nM, the GI50 [19] was 3790 nM and the GI50 (SNB-19) was 1590 nM. It also gave a GI50 (NCI-H322M) of 3150 nM, a GI50 (NCI-H460) of 680 nM and a GI50 (K562) of 360 nM. For the same molecule, the Activity (MCF7 [20]) was 97.86%, the GI50 [21] was 480 nM and the GI50 (COLO 205) was 1920 nM. For the same molecule, the GI50 (SR) was 440 nM and the inhibition (MCF7 [22]) was “inactive”.

— ChEMBL document CHEMBL3217491, “Design, synthesis and biological evaluation of imidazopyridine/pyrimidine-chalcone derivatives as potential anticancer agents” (2010)
